Key:
DNMT1 = DNMT1 (Homo sapiens, UniProt P26358); assay: DNMT1 activity assay (Poly(dI-dC) substrate, ^3H-SAM); assay type: biochemical; conditions: for EC50: read-out: EC50, activation of DNMT-1
Method: (§1) For the DNMT1 activity assay, the substrate solution, 0.001 mg/ml Poly(dI-dC):Poly(dI-dC) in 50 mM Tris-HCl, pH 7.5, 50 mM NaCl, 5 mM EDTA, 5 mM DTT, 1 mM PMSF, 5% glycerol, 0.01% Brij35, 1% DMSO was used. For the DNMT3a/3b activity assay, 0.0075 mg/ml Lambda DNA in 50 mM Tris-HCl, pH 7.5, 50 mM NaCl, 5 mM EDTA, 5 mM DTT, 1 mM PMSF, 5% glycerol, 1% DMSO, was used. The indicated DNMT1, DNMT3a, or DNMT3b was added to the appropriate substrate solution and gently mixed. […] The mixtures were first incubated for 15 min, then ^3H-SAM was added to the reaction mixture to initiate the reaction, and the mixture was incubated for 60 min at 30° C. Following incubation, the reaction mixture was finally transferred to filter-paper for detection of radioactivity counts.

DNMT1/3a/3b = assay: Enzyme kinetic study, DNMT1/3a/3b activities overall; assay type: biochemical; conditions: for effect on enzymatic activities: controls
Method: as §1

DNMT3a = DNMT3a (Homo sapiens, UniProt Q9Y6K1); assay: DNMT3a activity assay (Lambda DNA substrate, ^3H-SAM); assay type: biochemical
Method: as §1

DNMT3b = DNMT3b (Homo sapiens, UniProt Q9UBC3); assay: DNMT3b activity assay (Lambda DNA substrate, ^3H-SAM); assay type: biochemical
Method: as §1

[1] = Metabolite profiling of plasma, urine, feces, intravenous dose; assay type: in vivo, Sprague Dawley rats; conditions: intravenous 10 mg/kg
Method: Nine male Sprague Dawley rats (Group 1) were designated for the pharmacokinetic phase, 3 male Sprague Dawley rats (Group 2) for the excretion mass balance phase, and 7 male Sprague Dawley rats (Group 3) and 9 male Long Evans rats (Group 4) for the tissue distribution phase. All animals received a single intravenous dose of [^14C]-25HC3S at 10 mg/kg and a target radioactivity of 225 μCi/kg. Blood samples were collected from all Group 1 animals at approximately 0.083, 0.25, 0.5, 1, 2, 4, 8, 12, 24, 48, and 72 hours post-dose. Urine and feces were collected from all Group 2 animals periodically through 168 hours post-dose. […] Following blood collection, animals were euthanized by CO2 inhalation and carcasses frozen in a dry ice/hexane bath for processing by quantitative whole body autoradiography. Whole blood, plasma, urine, feces, cage rinse, and cage wash were analyzed for total radioactivity by liquid scintillation counting.

[2] = Metabolite profiling of plasma and feces, oral dose; assay type: in vivo, rats
Method: Radiolabeled components in plasma and feces extracts were profiled and identified using radio-high performance liquid chromatography (HPLC) and high performance liquid chromatography/mass spectrometry (HPLC/MS) methods.
Plasma pools were prepared for Group 1 (75 mg/kg, [^14C]-25HC3S) samples collected at 2, 4, and 6 hours post-dose. […] One metabolite M29 was identified as 25-hydroxycholesterol with 37% ROI and a concentration of 1233 ng-equiv./g.
Feces pools were prepared for Group 2 (75 mg/kg, [^14C]-25HC3S) samples collected from 0 to 24, 24 to 48, 48 to 72, 72 to 96, 96 to 120, 120 to 144, and 144 to 168 hours post-dose. A total of eleven metabolites were identified. None of the metabolites were present at ≥5% of dose. Metabolites present at 2-5% of dose were M1 (4.5% of total dose and 1%-69% ROI), M3 (4.6% of total dose and 1%-44% ROI), M4 (2.0% of total dose and 0%-10% ROI), M8 (3.1% of total dose and 1%-46% ROI), […], and M30 (3.3% of total dose and 0%-5% ROI).

[3] = Sprague Dawley, rat, in vivo, po, 75 mg/kg

DNMT1, sequence (P26358 whole entry): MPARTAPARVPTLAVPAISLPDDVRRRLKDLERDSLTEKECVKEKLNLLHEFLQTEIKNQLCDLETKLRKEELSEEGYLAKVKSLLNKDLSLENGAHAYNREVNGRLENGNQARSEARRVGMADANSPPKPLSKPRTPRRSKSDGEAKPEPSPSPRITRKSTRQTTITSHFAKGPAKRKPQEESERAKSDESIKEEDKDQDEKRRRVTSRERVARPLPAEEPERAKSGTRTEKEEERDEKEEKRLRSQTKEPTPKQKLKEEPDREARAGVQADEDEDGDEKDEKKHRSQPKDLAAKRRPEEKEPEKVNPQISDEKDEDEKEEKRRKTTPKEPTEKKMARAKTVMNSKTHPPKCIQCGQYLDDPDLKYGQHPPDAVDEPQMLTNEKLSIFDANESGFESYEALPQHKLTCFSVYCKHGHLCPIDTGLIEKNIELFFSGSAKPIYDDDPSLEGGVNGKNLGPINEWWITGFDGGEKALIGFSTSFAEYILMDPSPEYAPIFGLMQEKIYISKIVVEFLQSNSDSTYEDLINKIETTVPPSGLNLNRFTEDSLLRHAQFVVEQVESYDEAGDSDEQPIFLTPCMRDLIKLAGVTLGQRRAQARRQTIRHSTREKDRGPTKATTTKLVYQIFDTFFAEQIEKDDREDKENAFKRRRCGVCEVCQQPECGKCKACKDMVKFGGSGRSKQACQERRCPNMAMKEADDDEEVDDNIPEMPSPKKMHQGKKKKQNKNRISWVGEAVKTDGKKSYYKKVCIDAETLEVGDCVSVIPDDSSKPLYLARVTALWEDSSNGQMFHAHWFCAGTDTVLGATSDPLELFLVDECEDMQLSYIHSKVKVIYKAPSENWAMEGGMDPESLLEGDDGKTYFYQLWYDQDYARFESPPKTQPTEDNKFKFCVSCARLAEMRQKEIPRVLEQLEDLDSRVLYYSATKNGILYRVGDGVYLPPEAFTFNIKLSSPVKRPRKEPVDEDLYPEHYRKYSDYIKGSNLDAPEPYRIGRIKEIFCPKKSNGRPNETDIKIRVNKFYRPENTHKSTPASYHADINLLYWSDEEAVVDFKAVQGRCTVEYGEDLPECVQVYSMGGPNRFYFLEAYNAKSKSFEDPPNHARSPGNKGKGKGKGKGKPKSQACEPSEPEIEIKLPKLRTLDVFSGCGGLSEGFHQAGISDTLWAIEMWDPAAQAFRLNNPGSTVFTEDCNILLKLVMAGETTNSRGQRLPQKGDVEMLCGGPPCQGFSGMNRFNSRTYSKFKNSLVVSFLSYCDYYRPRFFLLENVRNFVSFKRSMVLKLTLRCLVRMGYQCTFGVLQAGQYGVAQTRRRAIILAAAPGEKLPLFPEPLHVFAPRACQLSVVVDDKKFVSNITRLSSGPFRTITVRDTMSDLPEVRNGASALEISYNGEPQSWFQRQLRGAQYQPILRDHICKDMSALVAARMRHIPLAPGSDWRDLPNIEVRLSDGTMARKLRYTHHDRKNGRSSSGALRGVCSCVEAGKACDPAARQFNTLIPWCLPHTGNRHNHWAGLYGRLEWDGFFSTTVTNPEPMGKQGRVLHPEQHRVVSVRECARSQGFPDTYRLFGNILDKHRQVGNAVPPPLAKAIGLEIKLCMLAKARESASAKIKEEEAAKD
DNMT3a, sequence (Q9Y6K1 whole entry, looked up): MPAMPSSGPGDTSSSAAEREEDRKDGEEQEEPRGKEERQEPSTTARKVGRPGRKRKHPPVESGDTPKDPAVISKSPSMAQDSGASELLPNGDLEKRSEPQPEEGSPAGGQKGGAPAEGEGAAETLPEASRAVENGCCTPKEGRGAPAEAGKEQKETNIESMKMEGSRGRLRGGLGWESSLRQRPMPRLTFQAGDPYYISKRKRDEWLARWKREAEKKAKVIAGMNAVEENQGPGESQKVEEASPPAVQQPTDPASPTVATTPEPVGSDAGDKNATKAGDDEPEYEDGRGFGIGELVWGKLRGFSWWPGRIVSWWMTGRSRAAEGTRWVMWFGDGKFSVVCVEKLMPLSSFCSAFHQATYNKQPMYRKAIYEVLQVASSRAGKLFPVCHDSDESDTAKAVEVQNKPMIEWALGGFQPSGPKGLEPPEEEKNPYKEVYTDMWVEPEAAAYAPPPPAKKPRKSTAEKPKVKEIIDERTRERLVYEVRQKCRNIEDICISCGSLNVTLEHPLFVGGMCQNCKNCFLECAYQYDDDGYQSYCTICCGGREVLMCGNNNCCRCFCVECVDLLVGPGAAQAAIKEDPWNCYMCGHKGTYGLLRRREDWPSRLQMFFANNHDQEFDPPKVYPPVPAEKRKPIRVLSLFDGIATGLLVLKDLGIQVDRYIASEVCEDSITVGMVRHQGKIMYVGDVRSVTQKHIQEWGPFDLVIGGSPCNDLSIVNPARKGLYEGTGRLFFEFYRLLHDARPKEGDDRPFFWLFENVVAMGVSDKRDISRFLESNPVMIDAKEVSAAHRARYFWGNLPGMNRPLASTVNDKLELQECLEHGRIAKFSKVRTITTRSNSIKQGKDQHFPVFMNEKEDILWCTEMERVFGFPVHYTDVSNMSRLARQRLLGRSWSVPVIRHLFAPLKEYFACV

Compound: C[C@@H](CO)CCC[C@@H](C)[C@H]1CC[C@H]2[C@@H]3CC=C4C[C@@H](O)CC[C@]4(C)[C@H]3CC[C@]12C [27HC, 27-Hydroxycholesterol]
- EC50 (DNMT1): 33 µM
- effect on other enzymes (DNMT1/3a/3b; enzymes other than DNMT-1): no effect

Compound: CC(C)CCC[C@@H](C)[C@H]1CC[C@H]2[C@@H]3CC=C4C[C@@H](OS(=O)(=O)O)CC[C@]4(C)[C@H]3CC[C@]12C [Xol3S, 5-cholesten-3β-ol, 3-sulfate, reference compound]
- IC50 (DNMT3a): 82 µM
- effect on enzymatic activities (DNMT1/3a/3b): did not significantly affect

Compound: CC(CO)CCC[C@@H](C)[C@H]1CC[C@H]2[C@@H]3CC=C4C[C@@H](OS(=O)(=O)O)CC[C@]4(C)[C@H]3CC[C@]12C (stereo partly drawn) [27HC3S, 5-cholesten-3β, 27-diol 3-sulfate]
- IC50 (DNMT1): 3.58 µM
- IC50 (DNMT3a): 8.88 µM
- IC50 (DNMT3b): 2.68 µM

Compound: C[C@H](CCCC(C)(C)O)[C@H]1CC[C@H]2[C@@H]3CC=C4C[C@@H](O)CC[C@]4(C)[C@H]3CC[C@]12C [25HC, 25-Hydroxycholesterol, reference compound]
- activation of DNMT-1 activity (DNMT1): 8 fold
- EC50 (DNMT1): 3.5 µM
- detection in plasma, urine, or feces samples [1]: Neither desmosterol sulfate nor 25-hydroxycholesterol was detected
- % of total dose in feces [2, 3]: 1.9 % of total dose
- ROI in feces [2, 3]: 0-2%
- relative observed intensity (ROI) in plasma ([2]; Sprague Dawley, rat, in vivo, po, 75 mg/kg, 2 h): 37%

Compound: desmosterol sulfate
- detection in plasma, urine, or feces samples [1]: Neither desmosterol sulfate nor 25-hydroxycholesterol was detected
- presence in plasma or feces samples ([2]; oral 75 mg/kg): not found

Compound: CC(C)CCC[C@@H](C)[C@H]1CC[C@H]2[C@@H]3CC=C4C[C@@H](O)CC[C@]4(C)[C@H]3CC[C@]12C [Xol, Cholesterol]
- effect on enzymatic activities (DNMT1/3a/3b): did not significantly affect

Compound: Nc1ncnc2c1ncn2[C@@H]1O[C@H](CSCC[C@H](N)C(=O)O)[C@@H](O)[C@H]1O [SAH, S-adenosyl homocysteine]
- inhibition at 1 µM (DNMT1; read-out: inhibition of DNMT1 activity): 95%
